Data as given in patent US8895561B2, “Compounds and methods for treating candidiasis and aspergillus infections” (Cellceutix Corporation, priority 2012, dated 2014).
Values after ≈ are worked out from the molar mass of the structure shown. Where two headings read alike, the source gives them in different places.

What was measured:
Format in all cases: cell-based
C. albicans GDH2346 = experiment: Candida IC50, vegetative cells, by OD600 and fluorescence; conditions: Candida albicans, GDH2346
Method: (§1) Candida IC50s were determined by OD600 and fluorescence from vegetative cells and by MTS viability assay in the hyphal state. MICs were determined using a broth microdilution assay under standard CLSI conditions Bacteria strains: E. coli 25922 (EC), S. aureus 27660 (SA), E. faecalis 29212 (EF), P. aeruginosa 10145 (PA), and K. pneumoniae 13883 (KP). Cytotoxicity (EC50) was determined against mouse 3T3 fibroblasts, human transformed liver HepG2 cells, and human oral keratinocyte cell line, OKF6/TERT using an MTS viability assay. Candida IC50s<10 μg/mL, MICs<5 μg/mL and cytotoxicity EC50s>100 μM are indicated in green. MICs>5 μg/mL and cytotoxicity EC50s<100 μM are indicated in red. Candida IC50s (CA) were determined by OD600 and fluorescence from vegetative cells. MICs were determined using a broth microdilution assay under standard CLSI conditions Bacteria strains: E. coli 25922 (EC), S. aureus 27660 (SA), E. faecalis 29212 (EF), P. aeruginosa 10145 (PA), and K. pneumoniae 13883 (KP). Cytotoxicity (EC50) was determined against mouse 3T3 fibroblasts and human transformed liver HepG2 cells using an MTS viability assay. For determination of anti-Candida IC50s, the method was modified by using RPMI/MOPS buffer pH 6.3 and by addition of FDGlu, a substrate for the yeast enzyme exoglucanase which is secreted during cell growth. This provides a fluorescent readout for cell growth which was used in addition to the traditional optical density measure of growth. OD600 and fluorescence were determined at 24 and 48 hours and the average of all 4 reads was used for the final IC50 determination.

K. pneumoniae 13883 = experiment: Bacterial MIC, broth microdilution, CLSI; conditions: Klebsiella pneumoniae
Method: as §1, with “assay.” for “assay. For determination of anti-Candida IC50s, the method was modified by using RPMI/MOPS buffer pH 6.3 and by addition of FDGlu, a substrate for the yeast enzyme exoglucanase which is secreted during cell growth. This provides a fluorescent readout for cell growth which was used in addition to the traditional optical density measure of growth. OD600 and fluorescence were determined at 24 and 48 hours and the average of all 4 reads was used for the final IC50 determination.”

E. coli 25922 = experiment: Bacterial MIC, broth microdilution, CLSI; conditions: Escherichia coli; E. coli 25922
Method: as §1, with “assay.” for “assay. For determination of anti-Candida IC50s, the method was modified by using RPMI/MOPS buffer pH 6.3 and by addition of FDGlu, a substrate for the yeast enzyme exoglucanase which is secreted during cell growth. This provides a fluorescent readout for cell growth which was used in addition to the traditional optical density measure of growth. OD600 and fluorescence were determined at 24 and 48 hours and the average of all 4 reads was used for the final IC50 determination.”

E. faecalis 29212 = experiment: Bacterial MIC, broth microdilution, CLSI; conditions: Enterococcus faecalis; E. faecalis 29212
Method: as §1, with “assay.” for “assay. For determination of anti-Candida IC50s, the method was modified by using RPMI/MOPS buffer pH 6.3 and by addition of FDGlu, a substrate for the yeast enzyme exoglucanase which is secreted during cell growth. This provides a fluorescent readout for cell growth which was used in addition to the traditional optical density measure of growth. OD600 and fluorescence were determined at 24 and 48 hours and the average of all 4 reads was used for the final IC50 determination.”

S. aureus 27660 = experiment: Bacterial MIC, broth microdilution, CLSI; conditions: Staphylococcus aureus; S. aureus 27660
Method: as §1, with “assay.” for “assay. For determination of anti-Candida IC50s, the method was modified by using RPMI/MOPS buffer pH 6.3 and by addition of FDGlu, a substrate for the yeast enzyme exoglucanase which is secreted during cell growth. This provides a fluorescent readout for cell growth which was used in addition to the traditional optical density measure of growth. OD600 and fluorescence were determined at 24 and 48 hours and the average of all 4 reads was used for the final IC50 determination.”

P. aeruginosa 10145 = experiment: Bacterial MIC, broth microdilution, CLSI; conditions: Pseudomonas aeruginosa; P. aeruginosa 10145
Method: as §1, with “assay.” for “assay. For determination of anti-Candida IC50s, the method was modified by using RPMI/MOPS buffer pH 6.3 and by addition of FDGlu, a substrate for the yeast enzyme exoglucanase which is secreted during cell growth. This provides a fluorescent readout for cell growth which was used in addition to the traditional optical density measure of growth. OD600 and fluorescence were determined at 24 and 48 hours and the average of all 4 reads was used for the final IC50 determination.”

A. viscosis = experiment: Commensal bacteria MIC, broth microdilution
Method: (§2) Bacterial MICs were determined using a broth microdilution assay under standard
(§3) CLSI conditions Bacteria strains: clinical isolates; yeast strains: C. dubliniensis (NCPF3949), C. glabrata (ATCC 90030), C. krusei (ATCC 6258), C. parapsilosis (ATCC 22019), and C. tropicalis (ATCC 750). Cytotoxicity (EC50) was determined against mouse 3T3 fibroblasts, human transformed liver HepG2 cells, and human oral keratinocyte cell line, OKF6/TERT using an MTS viability assay.

S. salivarius = experiment: Commensal bacteria MIC, broth microdilution; conditions: Streptococcus salivarius
Method: as §2, §3

[1] = system: human oral keratinocyte cell line, OKF6/TERT; experiment: Cytotoxicity, MTS viability assay
Method: Candida IC50s were determined by OD600 and fluorescence from vegetative cells and by MTS viability assay in the hyphal state. MICs were determined using a broth microdilution assay under standard CLSI conditions Bacteria strains: E. coli 25922 (EC), S. aureus 27660 (SA), E. faecalis 29212 (EF), P. aeruginosa 10145 (PA), and K. pneumoniae 13883 (KP). Cytotoxicity (EC50) was determined against mouse 3T3 fibroblasts, human transformed liver HepG2 cells, and human oral keratinocyte cell line, OKF6/TERT using an MTS viability assay. Candida IC50s<10 μg/mL, MICs<5 μg/mL and cytotoxicity EC50s>100 μM are indicated in green. MICs>5 μg/mL and cytotoxicity EC50s<100 μM are indicated in red.
as §3

[2] = system: C. albicans GDH2346 hyphal biofilm; experiment: Candida IC50 in the hyphal state / hyphal biofilm, MTS viability assay; conditions: Candida albicans
Method: Candida IC50s were determined by OD600 and fluorescence from vegetative cells and by MTS viability assay in the hyphal state. MICs were determined using a broth microdilution assay under standard CLSI conditions Bacteria strains: E. coli 25922 (EC), S. aureus 27660 (SA), E. faecalis 29212 (EF), P. aeruginosa 10145 (PA), and K. pneumoniae 13883 (KP). Cytotoxicity (EC50) was determined against mouse 3T3 fibroblasts, human transformed liver HepG2 cells, and human oral keratinocyte cell line, OKF6/TERT using an MTS viability assay. Candida IC50s<10 μg/mL, MICs<5 μg/mL and cytotoxicity EC50s>100 μM are indicated in green. MICs>5 μg/mL and cytotoxicity EC50s<100 μM are indicated in red. To form the biofilm, yeast were grown in RPMI/MOPS, 0.4% sucrose pH7.4 media supplemented with 10% FBS in tissue culture-treated flat bottom 96 well plates for 48 hours. The filamentous yeast cultures were then vigorously washed to remove any non-filamentous, non-attached yeast. The remaining attached filamentous biofilm yeast were incubated in saline containing serially diluted compounds for 24 hours. The cultures were aspirated to remove compound, rinsed and overlayed with RPMI/MOPS, 0.4% sucrose pH7.4 media. Biofilm viability was measured using a cell proliferation assay (CellTiter96 Aqueous Kit from Promega) and IC50s were determined using Prism GraphPad software (nonlinear fit, Table 3).

[3] = vegetative cells, read-out: IC50 Candida, Vegetative
[4] = vegetative cultures, read-out: Anti-C. albicans GDH2346 Vegetative (IC50)
[5] = 48 h, 2-day hyphal biofilm cultures, read-out: Anti-C. albicans GDH2346 Hyphal (IC50)
[6] = hyphal state, read-out: IC50 Candida, Hyphal

SMILES	IC50 (C. albicans GDH2346; [3]) [µg/mL]	IC50 (C. albicans GDH2346; [4]) [µg/mL]	EC50 (K. pneumoniae 13883) [µg/mL]	EC50 (E. coli 25922) [µg/mL]	EC50 (E. faecalis 29212) [µg/mL]	EC50 (S. aureus 27660) [µg/mL]	EC50 (P. aeruginosa 10145) [µg/mL]	MIC (A. viscosis) [µg/mL]	MIC (S. salivarius) [µg/mL]	IC50 [1] [µM]	IC50 [2, 5] [µg/mL]	IC50 [2, 6] [µg/mL]	IC50 (C. albicans GDH2346; Table 6, read-out: IC50 C. albicans) [µg/mL]
NCCSc1cc(SCCN)c(C(F)(F)F)cc1NC(=O)c1cc(C(=O)Nc2cc(C(F)(F)F)c(SCCN)cc2SCCN)ncn1 [Compound 100]	4.93 (≈ 6.53 µM)	4.93 (≈ 6.53 µM)	1.56 (≈ 2.07 µM)	1.56 (≈ 2.07 µM)	0.78 (≈ 1.03 µM)	0.78 (≈ 1.03 µM)	3.13 (≈ 4.15 µM)	> 64	> 64	> 1000	4.9 (≈ 6.49 µM)	4.9 (≈ 6.49 µM)	–
NCCCOc1cc(OCCCN)cc(-c2ccc3c(c2)c2cc(-c4cc(OCCCN)cc(OCCCN)c4)ccc2n3CCCN)c1 [Compound 135]	1.44 (≈ 2.15 µM)	1.44 (≈ 2.15 µM)	12.5 (≈ 18.7 µM)	6.25 (≈ 9.34 µM)	12.5 (≈ 18.7 µM)	12.5 (≈ 18.7 µM)	> 50	> 64	> 64	766	2.68 (≈ 4.01 µM)	2.68 (≈ 4.01 µM)	–
N=C(N)N1CCN(c2ccc(-c3cc(-c4ccc(N5CCN(C(=N)N)CC5)cc4)ncn3)cc2)CC1 [Compound 136]	4.24 (≈ 8.75 µM)	4.24 (≈ 8.75 µM)	50 (≈ 103 µM)	> 50	0.098 (≈ 0.202 µM)	0.39 (≈ 0.805 µM)	50 (≈ 103 µM)	4 (≈ 8.25 µM)	16 (≈ 33 µM)	466	0.71 (≈ 1.47 µM)	0.71 (≈ 1.47 µM)	1.4 (≈ 2.89 µM)
NCCCOc1cc(-c2cn(-c3cc(OCCCN)cc(OCCCN)c3)nn2)cc(-c2cn(-c3cc(OCCCN)cc(OCCCN)c3)nn2)c1 [Compound 137]	1.89 (≈ 2.59 µM)	–	> 50	50 (≈ 68.5 µM)	25 (≈ 34.3 µM)	25 (≈ 34.3 µM)	50 (≈ 68.5 µM)	> 64	> 64	42	–	2.29 (≈ 3.14 µM)	–
